Laboratory results from publication PMC8815882, “Screening the pandemic response box identified benzimidazole carbamates, Olorofim and ravuconazole as promising drug candidates for the treatment of eumycetoma” (PLoS Neglected Tropical Diseases, 2022).
Read-outs that look alike come from different tables or passages of the source.

System: M. mycetomatis genome strain MM55
Experiment: CLSI M38-A2 based in vitro susceptibility screening (XTT or resazurin), growth at fixed concentration
Assay type: cell-based, Madurella mycetomatis
Settings: Madurella mycetomatis
[1] = 25 uM, mean of three replicates, read-out: Percentage survival at 25um, 25 uM mean
[2] = 25 uM, replicate A, read-out: Percentage survival at 25um, 25 um A
[3] = 25 uM, replicate B, read-out: Percentage survival at 25um, 25 uM B
[4] = 25 uM, replicate C, read-out: Percentage survival at 25um, 25 uM C
[5] = mean of three replicates, read-out: Percentage survival at 100um, 100 uM mean
[6] = replicate 1, read-out: Percentage survival at 100um, 100 uM A (first replicate column)
[7] = replicate 2, read-out: Percentage survival at 100um, 100 uM A (second replicate column)
[8] = replicate 3, read-out: Percentage survival at 100um, 100 uM A (third replicate column)
[9] = mean of replicates, read-out: Percentage survival at 100um, 100 uM mean
[10] = 25 uM, mean of three, M. mycetomatis MM55, read-out: Percentage survival at 25um, 25 uM mean
[11] = 25 uM, replicate A, M. mycetomatis MM55, read-out: Percentage survival at 25um, 25 um A
[12] = 25 uM, replicate B, M. mycetomatis MM55, read-out: Percentage survival at 25um, 25 uM B
[13] = 25 uM, replicate C, M. mycetomatis MM55, read-out: Percentage survival at 25um, 25 uM C
[14] = mean of three, M. mycetomatis MM55, read-out: Percentage survival at 100um, 100 uM mean
[15] = replicate 1, M. mycetomatis MM55, read-out: Percentage survival at 100um, 100 uM A (first replicate column)
[16] = replicate 2, M. mycetomatis MM55, read-out: Percentage survival at 100um, 100 uM A (second replicate column)
[17] = replicate 3, M. mycetomatis MM55, read-out: Percentage survival at 100um, 100 uM A (third replicate column)
[18] = first replicate column, read-out: Percentage survival at 100um, 100 uM A
[19] = second replicate column, read-out: Percentage survival at 100um, 100 uM A
[20] = third replicate column, read-out: Percentage survival at 100um, 100 uM A

| SMILES | activity at 25 µM [1] [%] | activity at 25 µM [2] [%] | activity at 25 µM [3] [%] | activity at 25 µM [4] [%] | activity at 100 µM [5] [%] | activity at 100 µM [6] [%] | activity at 100 µM [8] [%] | also measured |
| --- | --- | --- | --- | --- | --- | --- | --- | --- |
| O=C1CCC(N2C(=O)c3ccccc3C2=O)C(=O)N1 (stereo not shown) [MMV002612] | 90.8 | 89.5 | 90.5 | 92.5 | 85.3 | 88.1 | 82.9 | Percent fungal survival at 100 µM [7]: 84.8% |
| NCc1ccc(S(N)(=O)=O)cc1 [MMV002665] | 85.4 | 82.7 | 87.5 | 86.1 | 90.8 | 98.4 | 95.8 | Percent fungal survival at 100 µM [7]: 78.3% |
| C[N+]1(C)CCCC(OC(=O)C(O)(c2ccccc2)c2ccccc2)C1 (stereo not shown) [MMV002676] |  | 73.4 | 85.9 | 78.5 |  |  |  | activity at 25 µM (25 uM, mean of replicates, read-out: Percentage survival at 25um, 25 uM mean): 79.3%; activity at 100 µM [9]: 79.9%; activity at 100 µM (replicate 1, read-out: Percentage survival at 100um, 100 uM A): 85.5%; activity at 100 µM (replicate 2, read-out: Percentage survival at 100um, 100 uM A): 72.6%; activity at 100 µM (replicate 3, read-out: Percentage survival at 100um, 100 uM A): 81.5% |
| Cc1cc(C2CCCCC2)n(O)c(=O)c1 [MMV002731] |  | -3.44 | 96.3 | 3.22 |  |  |  | activity at 25 µM (25 uM, mean, read-out: Percentage survival at 25um, 25 uM mean): 32%; activity at 100 µM (mean, read-out: Percentage survival at 100um, 100 uM mean): 5.09%; activity at 100 µM (replicate (first column), read-out: Percentage survival at 100um, 100 uM A): -2.39%; activity at 100 µM (replicate (second column), read-out: Percentage survival at 100um, 100 uM A): 6.16%; activity at 100 µM (replicate (third column), read-out: Percentage survival at 100um, 100 uM A): 11.5% |
| Cc1onc(-c2ccccc2Cl)c1C(=O)N[C@@H]1C(=O)N2[C@@H]1SC(C)(C)[C@@H]2C(=O)O [MMV002740] |  |  |  |  |  |  |  | activity at 25 µM [10]: 65.2%; activity at 25 µM [11]: 60.8%; activity at 25 µM [12]: 53.9%; activity at 25 µM [13]: 80.9%; activity at 100 µM [14]: 92.7%; activity at 100 µM [15]: 88.1%; Percent fungal survival at 100 µM [16]: 77.7%; activity at 100 µM [17]: 112% |
| COc1ccc2c(c1OC)C(=O)OC2C1c2c(cc3c(c2OC)OCO3)CCN1C (stereo not shown) [MMV002780] | 82 | 86.6 | 81.3 | 78.1 | 72.6 |  |  | activity at 100 µM [18]: 72.9%; activity at 100 µM [19]: 68.2%; activity at 100 µM [20]: 76.7% |
| C[C@H]1CC[C@]2(NC1)O[C@H]1C[C@H]3[C@@H]4CC[C@H]5C[C@@H](O)CC[C@]5(C)[C@H]4CC[C@]3(C)[C@H]1[C@@H]2C [MMV003069] |  | 98.3 |  |  |  | 80.2 | 84.2 | activity at 100 µM [9]: 85.8%; activity at 100 µM [7]: 92.8%; activity at 25 µM (read-out: Percentage survival at 25um, 25 uM B): 98.8%; activity at 25 µM (read-out: Percentage survival at 25um, 25 uM C): 91.1%; activity at 25 µM (read-out: Percentage survival at 25um, 25 uM mean): 96.1% |
| CC[C@H]1OC(=O)[C@H](C)[C@@H](O[C@H]2C[C@@](C)(OC)[C@@H](O)[C@H](C)O2)[C@H](C)[C@@H](O[C@@H]2O[C@H](C)C[C@H](N(C)C)[C@H]2O)[C@](C)(O)C[C@@H](C)C(=O)[C@H](C)[C@@H](O)[C@]1(C)O [MMV003137] |  |  |  |  |  |  |  | activity at 25 µM [10]: 82.5%; activity at 25 µM [11]: 94.8%; activity at 25 µM [12]: 79.1%; activity at 25 µM [13]: 73.6%; activity at 100 µM [14]: 79.9%; activity at 100 µM [15]: 78.2%; Percent fungal survival at 100 µM [16]: 73.7%; activity at 100 µM [17]: 87.7% |
| NC(=O)c1cnccn1 [MMV003249] | 83.1 | 89.2 | 75.7 | 84.4 | 60 | 53.7 | 56.3 | Percent fungal survival at 100 µM [7]: 70% |
| Cc1oncc1C(=O)Nc1ccc(C(F)(F)F)cc1 [MMV003291] | 85.3 | 82.1 | 92.4 | 81.5 | 62.5 |  |  | activity at 100 µM [18]: 55.9%; activity at 100 µM [19]: 52.4%; activity at 100 µM [20]: 79% |
| CC#C[C@]1(O)CC[C@H]2[C@@H]3CCC4=CC(=O)CCC4=C3[C@@H](c3ccc(N(C)C)cc3)C[C@@]21C [MMV003297] | 87.2 | 90.2 | 94.9 | 76.5 | 80.3 |  |  | activity at 100 µM [18]: 84.5%; activity at 100 µM [19]: 82.6%; activity at 100 µM [20]: 73.8% |
